“Also recorded” adds a separate entry of the source.

This is an account of results in publication PMC10830420, “Structures, functions and adaptations of the human LINE-1 ORF2 protein” (Nature, 2023).

In assay [1] the target is T1, ORF2p core (Homo sapiens, UniProt O00370).
T1 construct: His6-MBP-3C-ORF2p (238-1061, ORFeus-Hs) in pET41; His6-MBP (3C protease site) (N, cleaved yes); made in house; host or cells: E. coli
Nature of the assay: Gel-based L1 RT assay, ORF2p core, inhibition by NRTI triphosphates. The note with it: 100 nM dNTP mixture. Format: biochemical. The protocol:
(§1) ORF2p core was preincubated with a template:primer containing a single site for the incorporation of a given nucleotide analogue. The primer/template sequence shown in the panel a illustrates the case of single incorporation of 3TC, with a single G for incorporation; the incoming template sequence for entecavir and carbovir has a single C, and for d4T a single A, each at position labeled “N”. Reactions were incubated for one minute at 37 °C with a 100 nM dNTP mixture and increasing concentrations of listed inhibitors. IC50 index, fold = IC50 (drug, µM) ÷ [dNTP] […] Fluorescein-labeled dNTPs (here, uracil-TP) are incorporated by ORF2p into a biotinylated primer, here shown against a poly(A) template. Detection is then achieved using FRET with a terbium cryptate labeled streptavidin, and the time-resolved technique and time-delayed emission from terbium cryptate reduces background from other fluorescent chemicals in the mix. In the presence of ORF2p RT inhibitors (RTIs), base incorporation is stopped and FRET signal is lost. […]
(§2) ORF2p reverse transcriptase activity assays […]
Gel-based RT activity assays consisted of pr e-incubating RTs with annealed DNA/RNA, DNA/DNA, or RNA/RNA 5’- end- radiolabeled or 5’-end-Cy5- o r FAM-labeled template:primer duplex or hybrid duplex and, where indicated, inhibitor in the presence of 0.1- 1 μ M dNTP or NTP mixture, 0.25 mM EDTA, 50 mM NaCl, and 25 mM Tris (pH 8) for 10 min at 37°C. Labeled nucleic acids were purchased from Dharmacon or IDT. Unless otherwise indicated, 15 μL reactions were initiated by the addition of 1.3 mM MgCl2, incubated for 10 min at 37 °C, and then stopped by the addition of 15 μL of formamide/EDTA (25 mM) mixture and incubated at 95 °C for 10 min. 3 μL reaction samples were subjected to denaturing 8 M urea 20% PAGE to resolve products followed by signal quantification (ImageQuant 5.2, GE Healthcare Bio- Sciences) through phosphorimaging (Amersham Typhoon 5, Cytivia). Scanned gel images are […]
minor products; original images are provided in an Extended Data file. […]

The test system of assay [2] is L1 retrotransposition reporter in HeLa cells. As to the kind of experiment: LINE-1 dual luciferase retrotransposition assay in HeLa cells. It is filed as cell-based, human. The note with it: Homo sapiens; HeLa cells, stable dual luciferase L1 reporter, normalized to cell viability; n = 3 wells; read-out: IC50.
For assay [3], the target named is T1, ORF2p core. As to the kind of experiment: Homogeneous time-resolved fluorescence (HTRF) ORF2p RT assay. It is filed as biochemical. Particulars: HTRF; NRTI NTPs. The method, then:
as §1, §2
For HTRF RT assays157, 25 nM ORF2p core and 12. 5 nM t em plat e: primer was incubated at 25°C for 60 minutes
with 10 nM of fluorescein- 12- dUTP (Thermo), 1 µM each (dATP,dCTP,dGTP), and test compound in a 15 µL
reaction with buffer containing 50 mM Tris-HCl, 50 mM KCl, 10 mM MgCl2, 10 mM DTT, pH 8.1, and 1% final

Assay [4] relates to cytosolic RNA:DNA hybrids in L1-transfected HeLa and U2-OS cells. Nature of the assay: LINE-1 and RNA:DNA hybrid immunofluorescence. Format: cell-based, human. The note with it: 50 µM, added at the time of transfection, 24 h. The method, then:
Constructs all include C-terminal 3C-3xFlag tag on ORF2p and are synthetic ORFeus-Hs[63] sequence except where L1RP is indicated (L1 retinitis pigmentosa locus, AF148856, pLD564[17]). Cells were fixed in methanol and stained 24 h post transfection with the indicated constructs. Images are representative from 4 independent experiments. D4T RTI treatment is 50 µM, added at the time of transfection.
Culture Collection ( AT CC); THP1-Dual and THP1- Dual KO-TREX1 cells were from InvivoGen. All cell lines were maintained at 37 °C and 5% CO2 and validated and tested for mycoplasma. All plasmids and affinity reagents are described in Supplementary Tables 4-5 , respectively and available from Addgene at https://www.addgene.org/browse/article/28243724/.
LINE-1 and RNA:DNA hybrid immunofluorescence […]
induced using 200 µM IPTG overnight at 16°C, purified by sequential Ni-NTA affinity, heparin affinity, and gel filtration, and the monodisperse fraction was concentrated to 7 mg/ml. 150,000 HeLa or U2OS cells were plated on 22 mm glass coverslips in 6-well dishes and transfected with 2 µg of plasmid DNA using Lipofectamine 3000 (Thermo) according to the manufacturer’s instructions, with or without 50 µM d4T. […]
Cells were lysed in ice cold RIPA buffer containing 1x protease inhibitor tablet (Thermo), centrifuged for 10 minutes, and clarified lysates were quantified by BCA assay. […]

Broadly, the IC50 is the midpoint of a concentration-inhibition curve. As for `Cc1cn([C@H]2C=C[C@@H](CO)O2)c(=O)[nH]c1=O` [d4T, stavudine], the “IC50 index, fold = IC50 (drug, µM) ÷ [dNTP] (natural counterpart, 0.1 µM)” value at ORF2p core [1] was 4.1 fold. Besides, the IC50 at ORF2p core [1] (NTP forms of NRTIs, one minute at 37 °C) was 400 to 600 nM; in assay [2], 3100 nM; on ORF2p core [3], under 10 nM. The “formation of cytosolic RNA:DNA hybrids” value in assay [4] was “ablated; also recorded: inhibited”.
